One series relates to Stress Induced Ulcer. Put plainly: Effect on stress induced ulcer (water-immersion restraint stress, method of Takagi et al.). It counts as in vivo, Male rats of Sprague Dawley (SD) strain. As to conditions: oral, 100 mg/kg in 1% CMC, given 15 min before 18 h water immersion at 24°C; for Ulcer inhibition rate (%): relative to group without test compound; for Ulcer index (mm): total major axis of ulcers per animal, control 94.4 ± 25.1. The protocol: Test Method 1 (Effect on Stress Induced Ulcer) The method of Takagi et al. (Jap. J. Pharmacol., 18, 9 ([…])) was followed. Male rats of Sprague Dawley (SD) strain each weighing from 180 to 200 g (8 weeks old and 6 to 8 rats in one group) were fasted for 24 hours, followed by oral administration of the above test compounds which had been suspended in 1% CMC aqueous solution. Fifteen minutes later, the animals were placed in a stress cage which was then immersed in a water bath at 24°C at the depth of the […] of the animals. After being immersed for 18 hours, the animals were sacrificed under etherization to remove the stomachs. Each of the stomachs was injected with 12 ml of 1% formaldehyde solution and then immersed in a 1% formaldehyde solution for 15 minutes. The stomach was incised along its greater curvature and examined for the gastric lesions under a stereomicroscope for the major axis (mm) of each ulcer that had developed on the gastric mucous membrane. The total major axis (mm) per animal was taken as the ulcer index of the animal. The ulcer inhibition rate was calculated from the following equation. The ED50 value was obtained from the dose-ulcer inhibition rate curve. Ulcer inhibition rate (%) = (1 - ? ) x 100 (wherein l is the ulcer index of a group without the test compounds administered, and m is the ulcer index of a group having such compounds administered).

The subject of a further series is Male mice of ddY strain. Put plainly: Acute toxicity - minimum lethal dose (MLD). It counts as in vivo. As to conditions: oral administration in 1% CMC, fasted overnight, observation over 7 days. From the text: Test Method 2 (Acute Toxicity - Minimum Lethal Dose (MLD))
Male mice of ddY strain each weighing from 20 to 22 g (4 weeks old and 5 mice in one group) were fasted overnight, followed by oral administration of the test compounds which had been suspended in 1% CMC aqueous solution. Observation was made over 7 days to determine the minimum lethal dose (MLD).

Where a name gives a salt, the structure may show the parent alone. Where only a bound is given, the exact number is not on record here.

Results on 5 molecules are retold here after patent EP0268267A2, “Guanidinomethylbenzoic acid derivatives, compositions containing the same, processes for preparing the same, and the use of the same in the manufacture of medicaments of therapeutic value” (NIPPON HYPOX LABORATORIES INCORPORATED, priority 1986, dated 1988).

As for `COc1ccccc1NC(=O)c1ccc(CNC(=N)N)cc1.Cl` [Compound D, N-(2ʹ-methoxyphenyl)-4-guanidinomethylbenzamide hydrochloride], in the series on Stress Induced Ulcer, the “Ulcer inhibition rate (%)” value is 74.8% and the “Ulcer index (mm)” value was determined as 23.8 ± 14.9 mm.

Regarding `CCOC(=O)c1ccccc1NC(=O)c1ccc(CNC(=N)N)cc1.Cl` [C, N-(2ʹ-ethoxycarbonylphenyl)-4-guanidinomethylbenzamide hydrochloride], in the series on Stress Induced Ulcer, the “Ulcer inhibition rate (%)” value is recorded as 84.1% and the “Ulcer index (mm)” value is given as 15.0 ± 14.7 mm.

In the case of `N=C(N)NC[C@H]1CC[C@H](C(=O)Nc2ccccc2)CC1` [E, N-(phenyl)-trans-4-guanidinomethyl-cyclohexanecarboximide hydrochloride, reference compound], in the series with Stress Induced Ulcer, the “Ulcer inhibition rate (%)” value worked out at 35.0% and the “Ulcer index (mm)” value is given as 61.4 ± 14.0 mm. For the same molecule, the “minimum lethal dose (MLD)” value with Male mice of ddY strain is on record as ≤ 1,000 mg/kg.

As to `Cc1ccc(NC(=O)c2ccc(CNC(=N)N)cc2)cc1.Cl` [A, N-(4ʹ-methylphenyl)-4-guanidinomethylbenzamide hydrochloride], in the series with Stress Induced Ulcer, the “Ulcer inhibition rate (%)” value was 90.3% and the “Ulcer index (mm)” value was determined as 9.2 ± 3.4 mm.

As to `Cl.N=C(N)NCc1ccc(C(=O)Nc2ccc(Cl)cc2)cc1` [B, N-(4ʹ-chlorophenyl)-4-guanidinomethylbenzamide hydrochloride], in the series with Stress Induced Ulcer, the “Ulcer inhibition rate (%)” value was found to be 80.5% and the “Ulcer index (mm)” value was determined as 18.4 ± 8.8 mm.
